According to patent US20210106648A1, “SYNERGISTIC COMBINATION OF CHEMOTHERAPY AND PEPTIDE FOR TREATING CANCER” (TOBEBIO Novel Drug Laboratory Co., Ltd., priority 2019, published 2021):
Where a name gives a salt, the structure may show the parent alone. Ends that are not written are not given here.

How the values were obtained:
CT26 colon cancer cells = experiment: CT26 colon cancer liver metastasis model; format: in vivo, Balb/c mice; conditions: allostatine-1 5 mg/kg daily s.c.; CPT-11 100 mg/kg weekly i.p.
[1] = tested on: AsPC-1 pancreatic cancer cells; format: in vivo, Balb/c nude mice; conditions: allostatine-1 2.5 mg/kg daily s.c.; paclitaxel 8 mg/kg weekly i.p.

Row | Molecule | median survival days (CT26 colon cancer cells) | Median survival [1]
1 | HGVSGWGQHGTHG [Allostatine-1, linear 13-amino acid analog peptide of alloferon-1] | 30 days | 97 days
2 | CC(=O)O[C@H]1C(=O)[C@@]2(C)[C@H]([C@H](OC(=O)c3ccccc3)[C@]3(O)C[C@H](OC(=O)[C@H](O)[C@@H](NC(=O)c4ccccc4)c4ccccc4)C(C)=C1C3(C)C)[C@]1(OC(C)=O)CO[C@@H]1C[C@@H]2O [Paclitaxel] | – | 108 days
3 | CCc1c2c(nc3ccc(OC(=O)N4CCC(N5CCCCC5)CC4)cc13)-c1cc3c(c(=O)n1C2)COC(=O)[C@]3(O)CC [CPT-11, Irinotecan hydrochloride] | 35.5 days | –
